Measurements: US20240158392A1 (Janssen Biotech, Inc., priority 2021, published 2024)
Read-outs that look alike come from different tables or passages of the source.

Target: SIK2 (Homo sapiens, UniProt Q9H0K1)
Assay: SIK2 Enzymatic Assay High Version 2 (High ATP)
Assay type: biochemical
Outline: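 At room temperature, enzyme (6 nM, 2× final) was preincubated with compound for 30 min, then 6 mM ATP and 400 μM HDAC5tide (both 2× final) were added for 2 h. ADP formed was measured by ADP-Glo Max (2 h reagent, 1 h detection) using luminescence.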

[1] = enzyme 6 nM, 6 mM ATP and 400 μM HDAC5tide (each 2× final concentration), 30 minutes pre-incubation, 2 hours, ADP-Glo Max luminescence, read-out: SIK2 high ATP IC50 (μM) (Test Example 2)

Sequence of SIK2 (Q9H0K1 whole entry, species assumed): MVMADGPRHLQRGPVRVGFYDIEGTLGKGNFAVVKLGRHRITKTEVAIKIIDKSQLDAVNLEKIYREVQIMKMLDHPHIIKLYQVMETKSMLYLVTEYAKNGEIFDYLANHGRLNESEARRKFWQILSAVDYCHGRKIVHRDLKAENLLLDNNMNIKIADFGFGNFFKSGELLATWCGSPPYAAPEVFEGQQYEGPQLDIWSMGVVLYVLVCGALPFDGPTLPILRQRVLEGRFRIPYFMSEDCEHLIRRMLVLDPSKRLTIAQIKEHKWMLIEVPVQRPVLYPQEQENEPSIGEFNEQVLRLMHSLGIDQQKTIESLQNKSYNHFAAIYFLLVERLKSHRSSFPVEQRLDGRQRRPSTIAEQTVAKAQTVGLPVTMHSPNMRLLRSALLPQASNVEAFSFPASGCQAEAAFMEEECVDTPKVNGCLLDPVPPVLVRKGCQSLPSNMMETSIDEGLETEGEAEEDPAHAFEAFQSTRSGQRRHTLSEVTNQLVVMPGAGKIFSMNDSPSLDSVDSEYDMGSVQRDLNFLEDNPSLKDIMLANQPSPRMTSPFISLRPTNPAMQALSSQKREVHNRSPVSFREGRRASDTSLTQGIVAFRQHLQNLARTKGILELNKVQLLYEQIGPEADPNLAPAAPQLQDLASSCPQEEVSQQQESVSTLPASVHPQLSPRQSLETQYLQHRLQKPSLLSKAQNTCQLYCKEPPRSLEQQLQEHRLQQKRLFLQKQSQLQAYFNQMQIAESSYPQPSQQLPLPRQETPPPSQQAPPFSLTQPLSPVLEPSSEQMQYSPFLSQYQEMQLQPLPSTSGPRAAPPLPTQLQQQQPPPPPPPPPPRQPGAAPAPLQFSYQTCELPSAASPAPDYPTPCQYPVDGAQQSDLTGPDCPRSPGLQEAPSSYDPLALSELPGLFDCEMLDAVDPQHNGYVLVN

Compound	IC50 [1] [µM]	IC50 [µM]
Cc1cc(-c2ccn3nc(Nc4ccn(C)n4)cc3c2)c(O[C@H]2C[C@H]3COC[C@@H](C2)N3)cn1 [Example 125, endo-5-(5-(((1R,5S,7s)-3-oxa-9-azabicyclo[3.3.1]nonan-7-yl)oxy)-2-methylpyridin-4-yl)-N-(1-methyl-1H-pyrazol-3-yl)pyrazolo[1,5-a]pyridin-2-amine]		< 0.000847
Cc1cc(-c2ccn3nc(Nc4ccccn4)cc3c2)c(OC[C@@H]2CNCCO2)cn1 [Example 130, 5-[2-methyl-5-[[(2S)-morpholin-2-yl]methoxy]-4-pyridyl]-N-(2-pyridyl)pyrazolo[1,5-a]pyridin-2-amine]		0.00429
CC[C@@H]1NC[C@@H]1Oc1cnc(C)cc1-c1ccn2nc(NC(=O)C3CC3)cc2c1 (relative stereo) [Example 453, (*S, *S)—N-[5-[5-(2-ethylazetidin-3-yl)oxy-2-methyl-4-pyridyl]pyrazolo[1,5-a]pyridin-2-yl]cyclopropanecarboxamide]		0.0334
Cc1cc(-c2ccn3nc(Nc4cc(C)c(=O)n(C)n4)cc3c2)c(OC2C[C@H]3COC[C@@H](C2)N3)cn1 (stereo partly drawn) [Example 337, 2,4-dimethyl-6-[[5-[2-methyl-5-[[(1S,5R)-3-oxa-9-azabicyclo[3.3.1]nonan-7-yl]oxy]-4-pyridyl]pyrazolo[1,5-a]pyridin-2-yl]amino]pyridazin-3-one]		0.00148
Cc1cc(-c2ccn3nc(NC(=O)C4CC4)cc3c2)c(OC[C@H](N)c2ccccc2)cn1 (single isomer, unassigned) [Example 465]	0.0129	
Cc1cc(-c2ccn3nc(Nc4ccn(C(C)C)n4)cc3c2)c(OC[C@@H]2CNCCO2)cn1 [Example 135, N-(1-isopropylpyrazol-3-yl)-5-[2-methyl-5-[[(2S)-morpholin-2-yl]methoxy]-4-pyridyl]pyrazolo[1,5-a]pyridin-2-amine]	0.00986	
Cc1cc(Nc2cc3cc(-c4cc(OC(F)F)ncc4OC[C@H]4CC(=O)NC4(C)C)ccn3n2)nc(C)n1 (single isomer, unassigned) [Example 732, (*S)-4-[[6-(difluoromethoxy)-4-[2-[(2,6-dimethylpyrimidin-4-yl)amino]pyrazolo[1,5-a]pyridin-5-yl]-3-pyridyl]oxymethyl]-5,5-dimethyl-pyrrolidin-2-one]	0.00164	
Cc1cc(-c2ccn3nc(Nc4cc(C)nc(C)n4)cc3c2)c(OC[C@H]2C[C@H](C#N)C2)cn1 [Example 686, 3-[[4-[2-[(2,6-dimethylpyrimidin-4-yl)amino]pyrazolo[1,5-a]pyridin-5-yl]-6-methyl-3-pyridyl]oxymethyl]cyclobutanecarbonitrile]	0.0179	
CCN1[C@@H]2COC[C@H]1C[C@@H](Oc1cnc(C)cc1-c1ccn3nc(Nc4ccc(C(=O)NC)cn4)cc3c1)C2 [Example 530, 6-[[5-[5-[[(1S,5R)-9-ethyl-3-oxa-9-azabicyclo[3.3.1]nonan-7-yl]oxy]-2-methyl-4-pyridyl]pyrazolo[1,5-a]pyridin-2-yl]amino]-N-methyl-pyridine-3-carboxamide]		0.00236
Cc1cc(-c2ccn3nc(Nc4cc(C)nc(C)n4)cc3c2)c(O[C@H]2C[C@H](NS(C)(=O)=O)C2)cn1 [Example 580, N-[3-[[4-[2-[(2,6-dimethylpyrimidin-4-yl)amino]pyrazolo[1,5-a]pyridin-5-yl]-6-methyl-3-pyridyl]oxy]cyclobutyl]methanesulfonamide]	0.00198	
CNC(=O)c1ccc(Nc2cc3cc(-c4cc(C)ncc4O[C@H]4C[C@H]5COC[C@@H](C4)N5CC(C)(C)O)ccn3n2)nc1 [Example 532, 6-[[5-[5-[[(1S,5R)-9-(2-hydroxy-2-methyl-propyl)-3-oxa-9-azabicyclo[3.3.1]nonan-7-yl]oxy]-2-methyl-4-pyridyl]pyrazolo[1,5-a]pyridin-2-yl]amino]-N-methyl-pyridine-3-carboxamide]		0.0135
Cc1cc(-c2ccn3nc(Nc4ccncn4)cc3c2)c(O[C@H]2C[C@H]3COC[C@@H](C2)N3)cn1 [Example 395, 5-[2-methyl-5-[[(1R,5S,7s)-3-oxa-9-azabicyclo[3.3.1]nonan-7-yl]oxy]-4-pyridyl]-N-pyrimidin-4-yl-pyrazolo[1,5-a]pyridin-2-amine]		0.000851
Cc1cc(-c2ccn3nc(NC(=O)C4CC4)cc3c2)c(OC[C@]23C[C@H](CO2)N(C)C3)cn1 [Example 249, N-[5-[2-methyl-5-[[(1R,4R)-2-methyl-5-oxa-2-azabicyclo[2.2.1]heptan-4-yl]methoxy]-4-pyridyl]pyrazolo[1,5-a]pyridin-2-yl]cyclopropanecarboxamide]	0.0237	
Cc1cc(-c2ccn3nc(N)cc3c2)c(O[C@H]2C[C@H]3COC[C@@H](C2)N3)cn1 [Example 405, 5-(5-(((1R,5S,7s)-3-oxa-9-azabicyclo[3.3.1]nonan-7-yl)oxy)-2-methylpyridin-4-yl)pyrazolo[1,5-a]pyridin-2-amine]		< 0.000847
O=C(Nc1cc2cc(-c3cc(C(F)F)ccc3O[C@H]3C[C@H]4COC[C@@H](C3)N4)ccn2n1)C1CC1 [Example 481, N-[5-[5-(difluoromethyl)-2-[[(1R,5S)-3-oxa-9-azabicyclo[3.3.1]nonan-7-yl]oxy]phenyl]pyrazolo[1,5-a]pyridin-2-yl]cyclopropanecarboxamide]		< 0.000847

Further lines, with some results ahead:

IC50 [1] [µM]	Compound	IC50 [µM]
0.194	Cc1cc(-c2ccn3nc(Nc4cc(C(F)(F)F)c(C(=O)NCC(F)(F)F)cn4)cc3c2)c(OCC(C)(C)O)cn1 [Example 651, 6-[[5-[5-(2-hydroxy-2-methyl-propoxy)-2-methyl-4-pyridyl]pyrazolo[1,5-a]pyridin-2-yl]amino]-N-(2,2,2-trifluoroethyl)-4-(trifluoromethyl)pyridine-3-carboxamide]	
0.0153	Cc1cc(-c2ccn3nc(Nc4cc(C)nc(C)n4)cc3c2)c(OCC(O)(C(F)(F)F)C(F)(F)F)cn1 [Example 259, 2-[[4-[2-[(2,6-dimethylpyrimidin-4-yl)amino]pyrazolo[1,5-a]pyridin-5-yl]-6-methyl-3-pyridyl]oxymethyl]-1,1,1,3,3,3-hexafluoro-propan-2-ol]	
0.0134	Cc1cc(-c2ccn3nc(NC(=O)C4CC4)cc3c2)c(OC[C@@H](O)C(F)(F)F)cn1 (single isomer, unassigned) [Example 454, (*R)—N-[5-[2-methyl-5-[(2R)-3,3,3-trifluoro-2-hydroxy-propoxy]-4-pyridyl]pyrazolo[1,5-a]pyridin-2-yl]cyclopropanecarboxamide]	
0.0606	Cc1cc(-c2ccn3nc(Nc4cc(C)nc(C)n4)cc3c2)c(OC[C@@H]2COC(C)(C)C2)cn1 (single isomer, unassigned) [Example 539, (*R)—N-(2,6-dimethylpyrimidin-4-yl)-5-[5-[(5,5-dimethyltetrahydrofuran-3-yl)methoxy]-2-methyl-4-pyridyl]pyrazolo[1,5-a]pyridin-2-amine]	
0.0166	Cc1cc(-c2ccn3nc(Nc4cc(C)nc(N5CCOCC5)n4)cc3c2)c(OCC(C)(C)O)cn1 [Example 286, 2-methyl-1-[[6-methyl-4-[2-[(6-methyl-2-morpholino-pyrimidin-4-yl)amino]pyrazolo[1,5-a]pyridin-5-yl]-3-pyridyl]oxy]propan-2-ol]	
0.0176	Cc1cc(-c2ccn3nc(Nc4cnc(C(F)F)cn4)cc3c2)c(OC[C@H]2OCC[C@@H]2O)cn1 [Example 295, (2R,3S)-2-[[4-[2-[[5-(difluoromethyl)pyrazin-2-yl]amino]pyrazolo[1,5-a]pyridin-5-yl]-6-methyl-3-pyridyl]oxymethyl]tetrahydrofuran-3-ol]	
0.0056	CC(C)(C#N)COc1cnc(OC(F)F)cc1-c1ccn2nc(Nc3cnccn3)cc2c1 [Example 707, 3-[[6-(difluoromethoxy)-4-[2-(pyrazin-2-ylamino)pyrazolo[1,5-a]pyridin-5-yl]-3-pyridyl]oxy]-2,2-dimethyl-propanenitrile]	
< 0.000847	Cc1cc(-c2ccn3nc(Nc4cc(C)c(=O)n(C5CC5)n4)cc3c2)c(OCC(C)(C)C#N)cn1 [Example 316, 3-[[4-[2-[(1-cyclopropyl-5-methyl-6-oxo-pyridazin-3-yl)amino]pyrazolo[1,5-a]pyridin-5-yl]-6-methyl-3-pyridyl]oxy]-2,2-dimethyl-propanenitrile]	
0.0401	COc1cc(Nc2cc3cc(-c4cc(C)ncc4O[C@H]4CC[C@H](O)CC4)ccn3n2)cc(OC)c1C(=O)NCC(F)(F)F [Example 241, 4-[[5-[5-(4-hydroxycyclohexoxy)-2-methyl-4-pyridyl]pyrazolo[1,5-a]pyridin-2-yl]amino]-2,6-dimethoxy-N-(2,2,2-trifluoroethyl)benzamide]	
0.00138	COc1cc(Nc2cc3cc(-c4cc(C)ncc4OCC(C)(C)C#N)ccn3n2)cc(OC)c1C(=O)NC1CC1 [Example 268, 4-[[5-[5-(2-cyano-2-methyl-propoxy)-2-methyl-4-pyridyl]pyrazolo[1,5-a]pyridin-2-yl]amino]-N-cyclopropyl-2,6-dimethoxy-benzamide]	
< 0.000847	Cc1cc(Nc2cc3cc(-c4cc(OC(F)F)ncc4OCC(C)(C)C#N)ccn3n2)nc(N)n1 [Example 682, 3-[[4-[2-[(2-amino-6-methyl-pyrimidin-4-yl)amino]pyrazolo[1,5-a]pyridin-5-yl]-6-(difluoromethoxy)-3-pyridyl]oxy]-2,2-dimethyl-propanenitrile]	
0.0181	COCc1nc(C)cc(Nc2cc3cc(-c4cc(C)ncc4OCC(C)(C)O)ccn3n2)n1 [Example 205, 1-[[4-[2-[[2-(methoxymethyl)-6-methyl-pyrimidin-4-yl]amino]pyrazolo[1,5-a]pyridin-5-yl]-6-methyl-3-pyridyl]oxy]-2-methyl-propan-2-ol]	
0.0887	Cc1cc(-c2ccn3nc(Nc4ccc(C(=O)NC5CC5)cn4)cc3c2)c(OCC(C)(C)O)cn1 [Example 639, N-cyclopropyl-6-[[5-[5-(2-hydroxy-2-methyl-propoxy)-2-methyl-4-pyridyl]pyrazolo[1,5-a]pyridin-2-yl]amino]pyridine-3-carboxamide]	
